According to patent US11351173B2, “Substituted pyrrolo[1,2-a]pyrimidines and their use in the treatment of medical disorders” (Bial—R&D Investments, S.A., priority 2014, dated 2022):
Converted amounts (≈) assume the structure as drawn.

Legend:
[1] = biological target: T1, glucocerebrosidase (Gcase) (Homo sapiens, UniProt P04062); test: Glucocerebrosidase (Gcase) activation assay, 4-methylumbelliferyl-beta-D-glucopyranoside substrate, fluorescence readout; format: biochemical; conditions: for activation at 0.1 µM: read-out: Percent Gcase Activation, 0.1 μM Test Compound; for activation at 1 µM / Percent Gcase Activation, 1 μM Test Compound: test compound at 1.0 μM; for activation at 1 µM: read-out: Percent Gcase Activation, 1 μM Test Compound
T1 construct: micellar solution containing 10 nM GCase and 100 nM saposin C
T1 sequence (P04062 40-536): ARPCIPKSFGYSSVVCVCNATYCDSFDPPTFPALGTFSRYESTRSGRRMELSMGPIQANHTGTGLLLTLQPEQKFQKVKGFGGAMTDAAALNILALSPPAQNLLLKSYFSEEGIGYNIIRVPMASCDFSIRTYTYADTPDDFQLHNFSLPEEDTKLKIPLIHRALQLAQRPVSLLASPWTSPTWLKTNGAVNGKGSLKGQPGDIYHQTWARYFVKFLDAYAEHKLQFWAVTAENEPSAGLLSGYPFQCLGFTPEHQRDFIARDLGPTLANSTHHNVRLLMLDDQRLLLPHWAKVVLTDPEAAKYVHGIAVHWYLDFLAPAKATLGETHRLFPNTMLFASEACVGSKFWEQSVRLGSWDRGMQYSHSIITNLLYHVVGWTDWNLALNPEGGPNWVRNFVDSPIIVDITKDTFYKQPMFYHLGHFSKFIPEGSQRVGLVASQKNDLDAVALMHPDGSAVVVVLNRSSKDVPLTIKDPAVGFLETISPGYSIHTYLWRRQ
Protocol: The ability of exemplary compounds to activate glucocerebrosidase (Gcase) was measured.
A 484 μL aliquot of a 1.0 mg/mL solution of phosphatidylserine (PS) (Sigma P7769) in chloroform was evaporated under a stream of nitrogen for 1 hour. The lipid film was dissolved over 4 minutes of vigorous vortexing in 40 mL of 176 mM K2HPO4/50 mM citric acid (pH 4.7) containing 7.5 μL of triton X-100, resulting in a mixed micellar preparation with a composition of 0.32 mM triton and 0.37 mol % PS. 4-Methylumbelliferyl-beta-D-glucopyranoside (ACROS-337025000) was dissolved in the micellar solution to a final concentration of 2 mM for use as the reaction substrate.
Test compounds were diluted to the desired concentrations with dimethylsulfoxide (DMSO) from 10 mM stocks, and 0.41 μL of the DMSO compound mixture was added to 100 μL of micellar solution containing 10 nM GCase and 100 nM saposin C (Enzo ALX-201-262-C050). Pre-incubation was allowed to occur for 30 minutes at room temperature, after which the reaction was initiated by combining 25 μL of substrate solution with 25 μL of compound/GCase/saposin mixture. The reaction proceeded for 15 minutes at room temperature and was stopped by adding 150 μL of 1M glycine, pH 12.5. The endpoint of the reaction was monitored by measuring fluorescence intensity (excitation: 365 nm; emission: 440 nm) on a SpectraMax i3 instrument (Molecular Devices). Test compounds were screened at 1.0 and 0.1 μM final concentration, and subsequent 8-point dose response curves were obtained using 3-fold dilutions from a maximum final concentration of 5 μM.

[2] = Compound solubility in water; conditions: for solubility: Compound Solubility in Water

Row | SMILES | activation at 0.1 µM ([1]; test compound at 0.1 μM) | activation at 1 µM [1] | solubility ([2]; water) | other results
1 | Cc1cc(C)n2ccc(C(=O)NC3Cc4ccccc4C3)c2n1 [III-215] | 10 to 20% | > 60% |  | solubility ([2]; water, in water): 0.3 µg/mL (≈ 0.982 µM)
2 | Cc1cc(C)n2ccc(C(=O)NC3CCOc4ccc(F)cc43)c2n1 (stereo not shown) [III-225] | > 20% | > 60% |  | solubility ([2]; water, in water): 1.8 µg/mL (≈ 5.3 µM)
3 | CCCO[C@H]1CC[C@H](CNC(=O)c2ccn3c(C)cc(C)nc23)CC1 [III-240] | 10 to 20% | > 60% |  | solubility ([2]; water, in water): 21.4 µg/mL (≈ 62.3 µM)
4 | COCCOCCO[C@H]1CC[C@H](NC(=O)c2ccn3c(C)cc(C)nc23)CC1 [III-105] | < 10% | < 30% | 47.3 µg/mL (≈ 121 µM) | 
5 | Cc1cc(C)n2ccc(C(=O)Nc3ccc(-c4ccncc4)cc3)c2n1 [III-11] | 10 to 20% | 30 to 60% | 0.01 µg/mL (≈ 0.0292 µM) | 
6 | C#CCCCCO[C@H]1CC[C@H](NC(=O)c2ccn3c(C)cc(C)nc23)CC1 [III-208] | > 20% | > 60% |  | solubility ([2]; water, in water): 0.8 µg/mL (≈ 2.18 µM)
7 | Cc1cc(C)n2ccc(C(=O)N[C@H](C)c3ccccc3)c2n1 [III-165] | > 20% | > 60% | 1.1 µg/mL (≈ 3.75 µM) | 
8 | Cc1cc(C)n2ccc(C(=O)Nc3ccc4c(c3)OCO4)c2n1 [III-280] |  |  |  | solubility ([2]; water, in water): 0.2 µg/mL (≈ 0.647 µM)
9 | Cc1cc(C)n2ccc(C(=O)Nc3ccc(-n4ccnc4)cc3)c2n1 [III-86] | < 10% | < 30% | 0.3 µg/mL (≈ 0.905 µM) | 
10 | CO[C@H]1CC[C@@H](C(C)(C)NC(=O)c2ccn3c(C)cc(C)nc23)CC1 [III-238] | 10 to 20% | > 60% |  | solubility ([2]; water, in water): 1.6 µg/mL (≈ 4.66 µM)
11 | Cc1cc(C)n2ccc(C(=O)NC3CCC4(CCCCO4)CC3)c2n1 (stereo not shown) [III-113] |  |  |  | Percent Gcase Activation, 0.1 μM Test Compound ([1]; test compound at 0.1 μM): * (less than 10% Gcase activation); Percent Gcase Activation, 1 μM Test Compound [1]: +++ (Gcase activation greater than 60%); Compound Solubility in Water ([2]; water): 19.7 µg/mL
12 | CC[C@@H](NC(=O)c1ccn2c(C)cc(C)nc12)c1ccccc1 [III-124] | > 20% | > 60% | 1.2 µg/mL (≈ 3.9 µM) | 
13 | Cc1cc(C)n2ccc(C(=O)NC3CCc4ccccc43)c2n1 (stereo not shown) [III-216] | > 20% | > 60% |  | solubility ([2]; water, in water): 1.8 µg/mL (≈ 5.89 µM)
14 | CO[C@H]1CC[C@H](C(C)(C)NC(=O)c2ccn3c(C)cc(C)nc23)CC1 [III-236] | 10 to 20% | > 60% |  | solubility ([2]; water, in water): 9.9 µg/mL (≈ 28.8 µM)
15 | Cc1cc(C(F)(F)F)nc2c(C(=O)NC3CCC4(CCCCO4)C3)ccn12 (stereo not shown) [III-249] |  |  |  | Percent Gcase Activation, 1 μM Test Compound [1]: +++ (Gcase activation greater than 60%); Compound Solubility in Water ([2]; in water): 12.6 µg/mL
16 | Cc1cc(Br)n2ccc(C(=O)Nc3ccc(-c4cocn4)cc3)c2n1 [III-41] | < 10% | 30 to 60% | 0.02 µg/mL (≈ 0.0503 µM) | 
17 | Cc1cc(C)n2ccc(C(=O)Nc3ccc(-c4cccs4)cn3)c2n1 [III-116] | > 20% | > 60% | 0.003 µg/mL (≈ 0.00861 µM) | 

Row | SMILES | activation at 0.1 µM ([1]; test compound at 0.1 μM) | activation at 1 µM [1] | solubility ([2]; water) | other results
18 | Cc1cc(C)n2ccc(C(=O)Nc3ccc(Cl)c(-c4cnco4)c3)c2n1 [III-214] | > 20% | > 60% |  | solubility ([2]; water, in water): 0.01 µg/mL (≈ 0.0273 µM)
19 | Cc1cc(C)n2ccc(C(=O)Nc3ccc(C)c(-c4ncco4)c3)c2n1 [III-149] | > 20% | > 60% | < 1.5 µg/mL | 
20 | CCCCO[C@H]1CC[C@H](NC(=O)c2ccn3c(C)cc(NC)nc23)CC1 [III-66] | 10 to 20% | > 60% | 0.4 µg/mL (≈ 1.12 µM) | 
21 | Cc1cc(C)n2ccc(C(=O)NC3CCOc4ccccc43)c2n1 (stereo not shown) [III-211] | 10 to 20% | > 60% |  | solubility ([2]; water, in water): 3.8 µg/mL (≈ 11.8 µM)
22 | Cc1cc(C)n2ccc(C(=O)Nc3ccc4nc(C)sc4c3)c2n1 [III-88] | 10 to 20% | > 60% | 0.1 µg/mL (≈ 0.297 µM) | 
23 | Cc1cc(C)n2ccc(C(=O)NC3CCOc4cc(F)ccc43)c2n1 (stereo not shown) [III-196] | 10 to 20% | > 60% | 4.2 µg/mL (≈ 12.4 µM) | 
24 | COc1cc(NC(=O)c2ccn3c(C)cc(C)nc23)ccc1-c1cnco1 [III-87] | > 20% | 30 to 60% | 0.1 µg/mL (≈ 0.276 µM) | 
25 | Cc1cc(C)n2ccc(C(=O)Nc3ccc(C4=NCCO4)cc3Cl)c2n1 [III-219] | > 20% | > 60% |  | solubility ([2]; water, in water): 0.9 µg/mL (≈ 2.44 µM)
26 | Cc1cc(C)n2ccc(C(=O)N[C@@H](C)c3ccc(F)cc3)c2n1 [III-78] | > 20% | > 60% |  | 
27 | CCCOC1CC(CNC(=O)c2ccn3c(C)cc(C)nc23)C1 (stereo not shown) [III-239] | < 10% | < 30% |  | 
28 | Cc1cc(C)n2ccc(C(=O)Nc3ccc(N4CCCCC4)cc3)c2n1 [III-281] |  |  |  | solubility ([2]; water, in water): < 0.1 µg/mL
29 | Cc1cc(C)n2ccc(C(=O)NC3CCC(Oc4cc(C)on4)C3)c2n1 (stereo not shown) [III-244] |  |  |  | Percent Gcase Activation, 1 μM Test Compound [1]: +++ (Gcase activation greater than 60%)
30 | COCC#Cc1ccc(NC(=O)c2ccn3c(C)cc(C)nc23)cn1 [III-282] |  |  |  | solubility ([2]; water, in water): 0.7 µg/mL (≈ 2.09 µM)
31 | Cc1cc(C)n2ccc(C(=O)NC(C)(C)c3ccccc3Cl)c2n1 [III-79] | 10 to 20% | > 60% |  | 
32 | Cc1cc(C)n2ccc(C(=O)NC3CCC4(CCOCC4)CC3)c2n1 [III-140] | < 10% | < 30% |  | 
33 | COc1cc(C)nc2c(C(=O)Nc3ccc(-c4cocn4)cc3)ccn12 [III-51] | 10 to 20% | < 30% |  | 
34 | Cc1cc(C)n2ccc(C(=O)Nc3ccc4c(c3)C(n3oc(C)cc3=O)CC4)c2n1 (stereo not shown) [III-97] | < 10% | 30 to 60% |  | 

More lines, main results first:

Row | activation at 0.1 µM ([1]; test compound at 0.1 μM) | activation at 1 µM [1] | solubility ([2]; water) | SMILES | other results
35 | > 20% | > 60% | 0.3 µg/mL (≈ 0.868 µM) | Cc1cc(C)n2ccc(C(=O)NC34CCC(CC3)c3ccccc34)c2n1 [III-126] | 
36 | < 10% | 30 to 60% | 2.4 µg/mL (≈ 5.76 µM) | [2H]C1(NC(=O)c2ccn3c(C(C)C)cc(COC)nc23)CCOc2cc(F)c(F)cc21 (stereo not shown) [III-60] | 
37 | < 10% | > 60% | 1 µg/mL (≈ 3 µM) | CC(C)c1ccnc2c(C(=O)N[C@H]3CCCc4ccccc43)ccn12 [III-162] | 
38 | > 20% | > 60% | 0.4 µg/mL (≈ 1.1 µM) | COc1cc(-c2cnco2)ccc1NC(=O)c1ccn2c(C)cc(C)nc12 [III-110] | 
39 | > 20% | > 60% | 0.3 µg/mL (≈ 0.828 µM) | COCc1cc(C)n2ccc(C(=O)Nc3ccc(-c4cocn4)cc3)c2n1 [III-50] | 
40 | < 10% | 30 to 60% | 0.7 µg/mL (≈ 2.09 µM) | COCC#Cc1ccc(NC(=O)c2ccn3c(C)cc(C)nc23)cn1 [III-18] | 
41 | > 20% | > 60% |  | Cc1cc(C)n2ccc(C(=O)Nc3cccc4c3CCC4)c2n1 [III-220] | solubility ([2]; water, in water): 0.2 µg/mL (≈ 0.655 µM)
42 | 10 to 20% | > 60% | 10.4 µg/mL (≈ 31.6 µM) | Cc1cc(C)n2ccc(C(=O)N[C@H]3CC[C@H](OC(C)C)CC3)c2n1 [III-106] | 
43 | > 20% | > 60% | 1.8 µg/mL (≈ 5.37 µM) | Cc1cc(C)n2ccc(C(=O)NC3(C)CCOc4ccccc43)c2n1 (stereo not shown) [III-181] | 
44 | < 10% | < 30% |  | COCc1cc(C(C)C)nc2c(C(=O)NC3(C)CCCc4ncncc43)ccn12 (stereo not shown) [III-31] | 
45 | > 20% | > 60% |  | Cc1cc(C)n2ccc(C(=O)NC3CCCC(Oc4cccs4)C3)c2n1 (stereo not shown) [III-191] | 
46 | > 20% | > 60% |  | Cc1cc(C)n2ccc(C(=O)N[C@@H](C)c3ccccc3F)c2n1 [III-77] | 
47 | < 10% | < 30% |  | Cc1cc(C)n2ccc(C(=O)NC3(C)CCCc4ncncc43)c2n1 (stereo not shown) [III-175] | 
48 | < 10% |  |  | Cc1cc(C)n2ccc(C(=O)NC3CCC(Oc4cc(C)on4)C3)c2n1 (stereo not shown) [III-243] | 
49 | < 10% | < 30% |  | Cc1cc(C(F)(F)F)nc2c(C(=O)NC3(C)CCCc4ncncc43)ccn12 (stereo not shown) [III-250] | 
50 | < 10% | < 30% |  | COCc1cc(C(C)C)n2ccc(C(=O)NC3(C)CCCc4ncncc43)c2n1 (stereo not shown) [III-32] | 
